Reference: DBAASP
Converted amounts (≈) assume the structure as drawn. One block for each compound: values may come before it.

What was measured:
Assay in all cases: ≥ marks a high value that may be exact or a test limit, other limits are often not marked, values filed in µg/mL are converted to µM
Bacillus cereus = tested on: Bacillus cereus
Escherichia coli = tested on: Escherichia coli
[1] = tested on: Staphylococcus aureus ATCC 25923
[2] = tested on: Escherichia coli ATCC 25726
[3] = tested on: Pseudomonas aeruginosa ATCC 27853
[4] = tested on: Acinetobacter baumannii ATCC 19606
[5] = tested on: Bacillus subtilis ATCC 23857
[6] = tested on: Enterococcus faecalis ATCC 29212
[7] = tested on: Klebsiella pneumoniae ATCC 700603
[8] = tested on: Staphylococcus epidermidis ATCC 12228
[9] = tested on: Escherichia coli ATCC 25922
[10] = tested on: Candida albicans ATCC 90028
[11] = tested on: Staphylococcus aureus ATCC 29213
[12] = tested on: Pseudomonas aeruginosa ATCC 9027

Structure (SMILES): CC[C@H](C)[C@H](NC(=O)[C@H](CCCCN)NC(=O)[C@@H](NC(=O)[C@@H](NC(=O)[C@@H](NC(=O)[C@H](CCC(N)=O)NC(=O)[C@H](C)NC(=O)CNC(=O)[C@H](CO)NC(=O)[C@H](CCCCN)NC(=O)[C@H](CCC(N)=O)NC(=O)[C@H](C)NC(=O)[C@H](CCCCN)NC(=O)[C@H](CCCCN)NC(=O)[C@H](C)N)[C@@H](C)O)[C@@H](C)CC)C(C)C)C(=O)N[C@@H](Cc1ccccc1)C(=O)N[C@@H](C)C(=O)N[C@@H](CCCCN)C(=O)NCC(=O)N[C@@H](CCSC)C(=O)O [AKKAQKSGAQTIVKIFAKGM]
MIC (Bacillus cereus): ≥ 122 µM
MIC (Escherichia coli): > 122 µM

Structure (SMILES): CC[C@H](C)[C@H](NC(=O)CNC(=O)[C@@H](NC(=O)[C@H](CCSC)NC(=O)[C@H](C)NC(=O)[C@H](CC(N)=O)NC(=O)[C@H](CCCCN)NC(=O)[C@H](Cc1ccccc1)NC(=O)[C@H](CO)NC(=O)[C@H](CC(=O)O)NC(=O)[C@H](CC(C)C)NC(=O)[C@H](CC(C)C)NC(=O)CN)[C@@H](C)CC)C(=O)N[C@@H](C)C(=O)N[C@@H](CCCCN)C(=O)N[C@@H](CO)C(=O)N[C@@H](C)C(=O)NCC(=O)N[C@@H](CCCCN)C(=O)N[C@H](C(=O)N[C@@H](C)C(=O)N[C@@H](CC(C)C)C(=O)N[C@@H](CC(N)=O)C(=O)N[C@@H](CCCCN)C(=O)N[C@H](C(=O)N[C@@H](C)C(=O)N[C@H]1CSSC[C@@H](C(=O)O)NC(=O)[C@H]([C@@H](C)O)NC(=O)[C@H](CCCCN)NC(=O)[C@H](CC(=O)O)NC(=O)[C@H]([C@@H](C)CC)NC(=O)[C@H](CCCCN)NC1=O)[C@@H](C)CC)[C@@H](C)O [GLLDSFKNAMIGIAKSAGKTALNKIACKIDKTC]
MIC [1]: > 73 µM
MIC [2]: 18.2 µM (≈ 62.5 µg/mL)

Structure (SMILES): CC(C)C[C@H](NC(=O)[C@H](CC(C)C)NC(=O)[C@@H](NC(=O)[C@H](CCCCN)NC(=O)[C@H](Cc1ccccc1)NC(=O)[C@H](CCCN=C(N)N)NC(=O)[C@H](CCCCN)NC(=O)[C@H](CC(C)C)NC(=O)[C@H](CC(C)C)NC(=O)CN)[C@@H](C)O)C(N)=O [GLLKRFKTLL]
MIC [3]: 16 µM (≈ 19 µg/mL)
MIC [4]: 256 µM (≈ 304 µg/mL)
MIC [1]: 128 µM (≈ 152 µg/mL)
MIC [5]: ≥ 32 µM
MIC [6]: 256 µM (≈ 304 µg/mL)
MIC [7]: 128 µM (≈ 152 µg/mL)
MIC [8]: 16 µM (≈ 19 µg/mL)
MIC [9]: 64 µM (≈ 76 µg/mL)

Structure (SMILES): CC[C@H](C)[C@H](NC(=O)[C@H](CCCCN)NC(=O)CNC(=O)[C@H](C)NC(=O)[C@@H](NC(=O)[C@H](CO)NC(=O)CNC(=O)[C@H](C)NC(=O)[C@H](CCCCN)NC(=O)[C@H](CO)NC(=O)[C@H](C)NC(=O)[C@H](CCSC)NC(=O)CN)C(C)C)C(=O)N[C@@H](C)C(=O)N[C@@H](CCCCN)C(=O)N[C@@H](Cc1ccccc1)C(=O)N[C@@H](C)C(=O)N[C@@H](CC(C)C)C(=O)NCC(=O)N[C@@H](C)C(=O)N[C@@H](CC(C)C)C(N)=O [GMASKAGSVAGKIAKFALGAL]
MIC [1]: 80 µM (≈ 156 µg/mL)
MIC [2]: ≥ 80 µM
MIC [10]: ≥ 160 µM

Structure (SMILES): CC[C@H](C)[C@H](NC(=O)[C@H](C)NC(=O)[C@@H](NC(=O)[C@H](CCCCN)NC(=O)[C@H](C)NC(=O)[C@H](CC(C)C)NC(=O)[C@H](CCCCN)NC(=O)CNC(=O)[C@H](CC(C)C)NC(=O)[C@@H](NC(=O)[C@H](CO)NC(=O)CNC(=O)[C@H](C)NC(=O)[C@H](CCCCN)NC(=O)[C@H](CO)NC(=O)[C@H](C)NC(=O)[C@H](CCSC)NC(=O)CN)C(C)C)C(C)C)C(=O)NCC(=O)N[C@@H](C)C(=O)N[C@@H](CC(C)C)C(N)=O [GMASKAGSVLGKLAKVAIGAL]
MIC [1]: 100 µM (≈ 194 µg/mL)
MIC [2]: 25 µM (≈ 48.5 µg/mL)

Structure (SMILES): CC[C@H](C)[C@H](NC(=O)[C@H](CCCCN)NC(=O)[C@H](CO)NC(=O)[C@H](C)NC(=O)[C@H](Cc1c[nH]c2ccccc12)NC(=O)CN)C(=O)NCC(=O)N[C@@H](CCC(N)=O)C(=O)N[C@@H](C)C(=O)N[C@@H](CC(C)C)C(=O)NCC(=O)N[C@@H](CCCCN)C(=O)N[C@H](C(=O)N[C@@H](C)C(=O)N[C@@H](CCCCN)C(=O)N[C@H](C(=O)NCC(=O)N[C@@H](CC(C)C)C(=O)N[C@@H](CCC(N)=O)C(=O)N[C@@H](CCC(N)=O)C(=O)N[C@@H](Cc1ccccc1)C(=O)N[C@H](C(=O)N[C@@H](CCC(N)=O)C(=O)N1CCC[C@H]1C(=O)N[C@@H](CCCCN)C(=O)O)[C@@H](C)CC)C(C)C)C(C)C [GWASKIGQALGKVAKVGLQQFIQPK]
MIC [1]: > 100 µM
MIC [2]: 12.5 µM (≈ 33.2 µg/mL)

Next, values leading:

MIC [5]: ≥ 512 µM
MIC [8]: > 1020 µM
MIC [9]: 1020 µM (≈ 1680 µg/mL)
MIC [11]: > 1020 µM
Structure (SMILES): CC[C@H](C)[C@H](N)C(=O)N[C@@H](CC(=O)O)C(=O)N[C@@H](Cc1c[nH]c2ccccc12)C(=O)N[C@@H](CCCCN)C(=O)N[C@@H](CCCCN)C(=O)N[C@@H](CC(C)C)C(=O)N1CCC[C@H]1C(=O)N[C@@H](CC(=O)O)C(=O)N[C@@H](C)C(=O)N[C@@H](C)C(=O)N[C@@H](CCCCN)C(=O)N[C@@H](CCC(N)=O)C(=O)N[C@H](C(=O)N[C@@H](CC(C)C)C(N)=O)[C@@H](C)CC [IDWKKLPDAAKQIL]

MIC [1]: 40 µM (≈ 115 µg/mL)
MIC [2]: ≥ 80 µM
Structure (SMILES): CC[C@H](C)[C@H](N)C(=O)N[C@H](C(=O)N[C@H](C(=O)N1CCC[C@H]1C(=O)N1CCC[C@H]1C(=O)N[C@H](C(=O)N[C@H](C(=O)N[C@@H](CCCCN)C(=O)N[C@@H](CC(=O)O)C(=O)N[C@H](C(=O)N[C@@H](CC(C)C)C(=O)N[C@@H](CCCCN)C(=O)N[C@@H](CCCCN)C(=O)N[C@@H](Cc1ccccc1)C(=O)N[C@@H](Cc1ccccc1)C(=O)N[C@@H](CCCCN)C(=O)NCC(=O)NCC(=O)N[C@H](C(=O)N[C@@H](C)C(=O)NCC(=O)N[C@H](C(=O)N[C@@H](CCSC)C(=O)NCC(=O)N[C@@H](CCCCN)C(=O)N[C@@H](CO)C(=O)N[C@@H](CCC(N)=O)C(=O)O)C(C)C)[C@@H](C)CC)[C@@H](C)O)C(C)C)[C@@H](C)CC)[C@@H](C)CC)[C@@H](C)O [ITIPPIVKDTLKKFFKGGIAGVMGKSQ]

MIC [1]: 4 µM (≈ 5.8 µg/mL)
MIC [5]: 8 µM (≈ 11.6 µg/mL)
MIC [7]: 16 µM (≈ 23.2 µg/mL)
MIC [9]: 8 µM (≈ 11.6 µg/mL)
MIC [12]: 16 µM (≈ 23.2 µg/mL)
Structure (SMILES): CC[C@H](C)[C@H](NC(=O)[C@H](C)NC(=O)[C@H](CCCCN)NC(=O)[C@H](C)NC(=O)[C@@H](NC(=O)[C@H](C)NC(=O)[C@H](CC(C)C)NC(=O)[C@H](CC(C)C)NC(=O)[C@H](C)NC(=O)[C@H](CCCCN)NC(=O)[C@H](CC(C)C)NC(=O)[C@H](CC(N)=O)NC(=O)[C@@H](N)CC(C)C)C(C)C)C(=O)N[C@@H](CC(C)C)C(N)=O [LNLKALLAVAKAIL]

MIC (Bacillus cereus): ≥ 131 µM
MIC (Escherichia coli): > 131 µM
Structure (SMILES): CC[C@H](C)[C@H](NC(=O)[C@H](CC(C)C)NC(=O)[C@H](CO)NC(=O)[C@@H]1CCCN1C(=O)[C@@H](NC(=O)[C@@H](NC(=O)[C@H](CCCCN)NC(=O)[C@H](CO)NC(=O)[C@H](C)NC(=O)[C@@H](NC(=O)[C@H](CO)NC(=O)CNC(=O)[C@@H](NC(=O)[C@H](C)NC(=O)[C@@H](N)CO)C(C)C)C(C)C)C(C)C)C(C)C)C(=O)N[C@@H](CO)C(=O)N[C@@H](CCCCN)C(=O)N[C@H](C(=O)N[C@H](C(=O)N[C@@H](CCCCN)C(=O)O)[C@@H](C)O)C(C)C [SAVGSVASKVVPSLISKVTK]

MIC (Bacillus cereus): ≥ 129 µM
MIC (Escherichia coli): > 129 µM
Structure (SMILES): CC[C@H](C)[C@H](NC(=O)[C@@H](NC(=O)[C@H](CO)NC(=O)[C@H](CCCCN)NC(=O)[C@H](C)NC(=O)[C@@H](NC(=O)[C@H](CCCCN)NC(=O)[C@@H](NC(=O)[C@@H](N)CO)C(C)C)C(C)C)C(C)C)C(=O)N1CCC[C@H]1C(=O)N[C@@H](CO)C(=O)N[C@@H](C)C(=O)N[C@H](C(=O)N[C@@H](Cc1ccccc1)C(=O)N[C@@H](C)C(=O)NCC(=O)NCC(=O)N[C@@H](CCCCN)C(=O)N[C@H](C(=O)N[C@@H](Cc1ccccc1)C(=O)O)C(C)C)C(C)C [SVKVAKSVIPSAVFAGGKVF]
